Data reported in patent publication US9206198B2, “Inhibitors of the renal outer medullary potassium channel” (Merck Sharp & Dohme Corp., priority 2012, dated 2015).

Assays:
hROMK (hKir1.1) = hROMK (hKir1.1) (Homo sapiens (Human), UniProt P48048); experiment: Thallium Flux Assay (ROMK channel functional thallium flux assay, FLIPR-Tetra); format: cell-based; settings: HEK293 cells stably expressing hROMK
Description: Cell Culture Conditions— HEK293 cells stably expressing hROMK (hKir1.1) were grown at 37° C. in a 10% CO2 humidified incubator in complete growth media: Dulbecco's Modified Eagle Medium supplemented with non-essential amino acids, Penicillin/Streptomycin/Glutamine, G418 and FBS. At >80% confluency, aspirate the media from the flask and rinse with 10 mL Calcium/Magnesium-free PBS. Add 5 mL of 1× trypsin (prepared in Ca/Mg Free PBS) to T-225 flask and return flask to 37° C./CO2 incubator for 2-3 minutes. To dislodge the cell, gently bang the side of the flask with your hand. Triturate the cells completely and then transfer the cells to 25 mL complete media. Centrifuge at 1,500 rpm for 6 min followed by resuspension in complete growth media and determine cell concentration. For typical re-seeding, 4E6 cells/T-225 flask will attain >80% confluency in 4 days. Under ideal growth conditions and appropriate tissue culture practices, this cell line is stable for 40-45 passages.
FluxOR Kit Components (Invitrogen F10017)
• FluxOR™ Reagent (Component A) • FluxOR™ Assay Buffer (Component B)—10× Concentrate • PowerLoad™ Concentrate (Component C)—100× Concentrate • Probenecid (Component D)—Lyophilized sample is kept at −20° C. Water soluble, 100×after solubilization in 1 mL water. Store at 4° C. • FluxOR™ Chloride-free Buffer (Component E)—5× Concentrate • Potassium sulfate (K2SO4) Concentrate (Component F)—125 mM in water. Store at 4° C. • Thallium sulfate (Tl2SO4) Concentrate (Component G)—50 mM in water. Store at 4° C. • DMSO (dimethyl sulfoxide, Component H)—1 mL (100%) Reagent Preparation: FluxOR Working Solutions • 1000× FluxOR™ Reagent: Reconstitute a vial of component A in 100 μl DMSO; Mix well; Store 10 μl aliquots at −20° C. • 1× FluxOR™ Assay Buffer: Dilute Component B 10-fold with water; Adjust pH to 7.4 with Hepes/NaOH; Filter and store at 4° C. • Probenecid/Assay Buffer: 100 mL of 1× FluxOR™ Assay Buffer; 1 mL of reconstituted component D; Store at 4° C. • Loading Buffer (per microplate): 10 μl 1000× FluxOR™ Reagent; 100 μl component C; 10 mL Probenecid/Assay Buffer • Compound Buffer (per microplate): 20 mL Probenecid/Assay Buffer; 0.3 mM ouabain (10 mM ouabain in water can be stored in amber bottle/aluminum foil at room temperature); Test compound • 1× FluxOR™ Chloride-Free Buffer: Prepare 1× working solution in water. Can be stored at room temperature • Stimulant Buffer (prepared at 5× final concentration in 1× FluxOR™ Chloride-Free Buffer): 7.5 mM Thallium sulfate and 0.75 mM Potassium sulfate (to give a final assay concentration of 3 mM Thallium 0.3 mM Potassium). Store at 4° C. when not in use. If kept sterile, this solution is good for months.
Assay Protocol—The ROMK channel functional thallium flux assay is performed in 384 wells, using the FLIPR-Tetra instrument. HEK-hKir1.1 cells are seeded in Poly-D-Lysine microplates and kept in a 37° C.-10% CO2 incubator overnight. On the day of the experiment, the growth media is replaced with the FluxOR™ reagent loading buffer and incubated, protected from light, at ambient temperature (23-25° C.) for 90 min. The loading buffer is replaced with assay buffer±test compound followed by 30 min incubation at ambient temperature, where the Thallium/Potassium stimulant is added to the microplate.
• 1. Seed HEK-hKir1.1 cells ([…] at 20,000 cells/well) in 384-well PDL coated Microplates • 2. Allow cells to adhere overnight in humidified 37° C./10% CO2 incubator • 3. Completely remove cell growth media from microplate and replace with 25 μl loading buffer • 4. Incubate Microplate at room temperature, protected form light, for 90 min • 5. Remove loading buffer and replace with 25 μl 1× Assay Buffer±test compound. • 6. Incubate microplate at room temperature, protected from light, for 30 min • 7. At FLIPR-Tetra 384: Add stimulant (Thallium/Potassium) solution to microplate and monitor fluorescence. Excitation=400 nm, Emission=460 & 580 nm. Collect data for 10 min.

Kir1.1 (ROMK1) = Kir1.1 (ROMK1) (Homo sapiens (Human), UniProt P48048); experiment: Electrophysiology Assay (whole cell voltage clamp, IonWorks Quattro); format: cell-based; settings: Chinese hamster ovary cells stably expressing Kir1.1; block during voltage step to 0 mV
Chain of Kir1.1 (ROMK1) (P48048 whole entry, species assumed): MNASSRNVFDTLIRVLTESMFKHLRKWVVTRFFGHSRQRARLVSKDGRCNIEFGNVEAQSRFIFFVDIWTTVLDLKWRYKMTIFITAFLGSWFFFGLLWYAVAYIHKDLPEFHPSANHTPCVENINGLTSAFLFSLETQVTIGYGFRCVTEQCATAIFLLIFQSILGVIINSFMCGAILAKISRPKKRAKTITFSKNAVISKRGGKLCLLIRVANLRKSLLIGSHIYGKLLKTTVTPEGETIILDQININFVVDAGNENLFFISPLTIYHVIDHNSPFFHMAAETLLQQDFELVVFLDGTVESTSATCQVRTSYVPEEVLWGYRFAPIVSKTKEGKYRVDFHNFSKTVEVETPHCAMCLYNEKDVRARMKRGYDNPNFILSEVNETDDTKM
Description: Block of Kir1.1 (ROMK1) currents was examined by whole cell voltage clamp (Hamill et. al. Pfluegers Archives 391:85-100 (1981)) using the IonWorks Quattro automated electrophysiology platform (Molecular Devices, Sunnyvale, Calif.). Chinese hamster ovary cells stably expressing Kir1.1 channels were maintained in T-75 flasks in cell culture media in a humidified 10% CO2 incubator at 37° C. Prior to an experiment, Kir1.1 expression was induced by overnight incubation with 1 mM sodium butyrate. On the day of the experiment, cells were dissociated with 2.5 mL of Versene (Invitrogen 15040-066) for approximately 6 min at 37° C. and suspended in 10 mL of bath solution containing (in mM): 150 NaCl, 10 KCl, 2.7 CaCl2, 0.5 MgCl2, 5 HEPES, pH 7.4. After centrifugation, the cell pellet was resuspended in approximately 4.0 mL of bath solution and placed in the IonWorks instrument. The intracellular solution consisted of (in mM): 80 K gluconate, 40 KCl, 20 KF, 3.2 MgCl2, 3 EGTA, 5 Hepes, pH 7.4. Electrical access to the cytoplasm was achieved by perforation in 0.13 mg/mL amphotericin B for 4 min. Amphotericin B (Sigma A-4888) was prepared as a 40 mg/mL solution in DMSO. Voltage protocols and current recordings were performed using the IonWorks HT software/hardware system. Currents were sampled at 1 kHz. No correction for liquid junction potentials was used. The test pulse, consisting of a 100 ms step to 0 mV from a holding potential of −70 mV, followed by a 100 ms voltage ramp from −70 mV to +70 mV, was applied before and after a 6 min compound incubation period. Test compounds were prepared by diluting DMSO stock solutions into the bath solution at 3× the final concentration and placed in the instrument in 96-well polypropylene plates. Current amplitudes were measured using the IonWorks software. To assess compound potency, the fractional block during the voltage step to 0 mV was calculated in Microsoft Excel (Microsoft, Redmond, Calif.), and dose-response curves were fitted with Igor Pro 4.0 (WaveMetrics, Lake Oswego, Oreg.). Normally, a control compound is included to support that the assay is giving consistent results compared to previous measurements, although the control is not required to obtain the results for the test compounds.

Chain of hROMK (hKir1.1) (P48048 whole entry): as the sequence (P48048 whole entry, species assumed) above

IC50 (hROMK (hKir1.1)) [nM]	IC50 (Kir1.1 (ROMK1)) [nM]	Structure (SMILES)
30	4	Cc1c([C@@H](O)CN2CCC3(CC2)CCN(C2=CC(=O)OC2)C3=O)ccc2c1COC2=O [Example 5, 8-[(2R)-2-hydroxy-2-(4-methyl-1-oxo-1,3-dihydro-2-benzofuran-5-yl)ethyl]-2-(5-oxo-2,5-dihydrofuran-3-yl)-2,8-diazaspiro[4.5]decan-1-one]
10	10	CC1=C(N2CCCC3(CCN(C[C@H](O)c4ccc5c(c4C)COC5=O)CC3)C2=O)COC1=O [Example 9, 9-[(2R)-2-hydroxy-2-(4-methyl-1-oxo-1,3-dihydro-2-benzofuran-5-yl)ethyl]-2-(4-methyl-5-oxo-2,5-dihydrofuran-3-yl)-1-oxo-2-aza-9-azoniaspiro[5.5]undecane]
